Values of other authors in patent US20060258652A1, “Beta-blockers having antioxidant and no-donor activity” (priority 2002, published 2006).

How the values were obtained:
[1] = prophylactic use
[2] = double-blind study, hypertensive patients

| Compound | patients in whom the incidence of migraine attacks is reduced [1] [%] | efficacy in anxiety compared with propranolol [2] |
| --- | --- | --- |
| CC(C)NCC(O)COc1cccc2ccccc12 (centres unmarked) [Propranolol] | 60 |  |
| CC(C)NCC(O)COc1ccc(CC(N)=O)cc1 (centres unmarked) [atenolol] |  | considerably better than propranolol |
